Legend:
Assay type in all cases: physicochemical
[1] = Bulk stability of solid under temperature/humidity stress (HPLC, appearance, XRPD); conditions: for purity decrease: listed as L-tartaric acid cocrystal Pattern A; for Bulk (XRPD) / Bulk (HPLC) purity, 316 nm: Solid state
Method: Bulk stability of (S)-4-((2-methoxyethyl)(4-(5,6,7,8-tetrahydro-1,8-naphthyridin-2-yl)butyl)amino)-2-(quinazolin-4-ylamino)butanoic acid L-tartaric acid cocrystal Pattern A was evaluated at 25° C./92.5% RH in an open container, at 40° C./75% RH in an open container, and at 60° C. in a closed container over 1 week and 4 weeks.
However, it became deliquescent after being stressed at 25° C./92.5% RH in an open container and at 40° C./75% RH in an open container after 1 week.

[2] = Water activity experiments in MeOH/water (relative stability of hydrate Pattern A and hydrate Pattern B); conditions: for water activity (a.w.) at which the pattern was obtained: methanol/water
Method: The relative stability of the hydrate Pattern A and the hydrate Pattern B was investigated using water activity experiments in MeOH/water systems. About 5 mg of (S)-4-((2-methoxyethyl)(4-(5,6,7,8-tetrahydro-1,8-naphthyridin-2-yl)butyl)amino)-2-(quinazolin-4-ylamino)butanoic acid L-tartaric acid cocrystal Pattern A and 5 mg of (S)-4-((2-methoxyethyl)(4-(5,6,7,8-tetrahydro-1,8-naphthyridin-2-yl)butyl)amino)-2-(quinazolin-4-ylamino)butanoic acid L-tartaric acid cocrystal Pattern B were added to 0.1-0.5 mL saturated solutions of the methanol/water system. Obtained suspensions were stirred at 5° C., 25° C. and 50° C. for up to 21 days, respectively. Solid parts (wet cakes) were isolated by centrifugation filtration and investigated by XRPD.

[3] = Compression study; conditions: 5 minutes; for XRPD after compression: hydraulic press
Method: About 20 mg of (S)-4-((2-methoxyethyl)(4-(5,6,7,8-tetrahydro-1,8-naphthyridin-2-yl)butyl)amino)-2-(quinazolin-4-ylamino)butanoic acid L-tartaric acid cocrystal Pattern A was compressed for 5 minutes under 2 MPa, 5 MPa and 10 MPa with a hydraulic press. Potential form change and degree of crystallinity were evaluated by XRPD.

[4] = Dry grinding; conditions: ground manually with mortar and pestle for 3 min
Method: About 20 mg of (S)-4-((2-methoxyethyl)(4-(5,6,7,8-tetrahydro-1,8-naphthyridin-2-yl)butyl)amino)-2-(quinazolin-4-ylamino)butanoic acid L-tartaric acid cocrystal Pattern A was ground manually with a mortar and a pestle for 3 min. Potential form change and degree of crystallinity were evaluated by XRPD.

[5] = Wet granulation simulation
Method: Water or ethanol was added dropwise to about 20 mg of (S)-4-((2-methoxyethyl)(4-(5,6,7,8-tetrahydro-1,8-naphthyridin-2-yl)butyl)amino)-2-(quinazolin-4-ylamino)butanoic acid L-tartaric acid cocrystal Pattern A until the sample was wetted sufficiently. The wet sample was ground gently using a mortar and pestle. Post granulation sample was dried under ambient conditions for 30 min. The potential form change and degree of crystallinity were evaluated by XRPD.

[6] = VT-XRPD heating experiment; conditions: heated to 110° C. under dry nitrogen flow for about 30 min, then cooled to ambient (20-26° C., 20%-35% RH)
Method: The dried(S)-4-((2-methoxyethyl)(4-(5,6,7,8-tetrahydro-1,8-naphthyridin-2-yl)butyl)amino)-2-(quinazolin-4-ylamino)butanoic acid L-tartaric acid cocrystal Pattern A was also investigated by VT-XRPD experiments. The(S)-4-((2-methoxyethyl)(4-(5,6,7,8-tetrahydro-1,8-naphthyridin-2-yl)butyl)amino)-2-(quinazolin-4-ylamino)butanoic acid L-tartaric acid cocrystal Pattern A was heated to 110° C. under dry nitrogen flow for about 30 min and then cooled to ambient condition (20-26° C., 20%-35% RH). The obtained solid parts were investigated by XRPD.

[7] = Bulk stability of solid under temperature/humidity stress (HPLC, appearance, XRPD); conditions: 40° C./75% RH in an open container, 4 weeks; listed as L-tartaric acid cocrystal Pattern A
[8] = 40° C./75% RH, open container, 4 weeks
[9] = 60° C., closed container, 4 weeks, listed as L-Tartaric acid cocrystal Pattern A, hydrate

COCCN(CCCCc1ccc2c(n1)NCCC2)CC[C@H](Nc1ncnc2ccccc12)C(=O)O [Pattern A, (S)-4-((2-methoxyethyl)(4-(5,6,7,8-tetrahydro-1,8-naphthyridin-2-yl)butyl)amino)-2-(quinazolin-4-ylamino)butanoic acid]
purity decrease ([1]; 25° C./92.5% RH in an open container, 4 weeks): 0.9% | physical form after stress ([1]; 25° C./92.5% RH open, 40° C./75% RH open and 60° C. closed container, four weeks): remained the same form | physical stability ([1]; 25° C./92.5% RH open, 40° C./75% RH open and 60° C. closed container, over 4 weeks): physically stable | purity decrease ([1]; 60° C. in a closed container, 4 weeks): 0.9% | Bulk (XRPD) ([1]; 25° C./92.5% RH, open container, 1 week): No form change | Bulk (HPLC) purity, 316 nm ([1]; 25° C./92.5% RH, open container, 1 week, listed as L-Tartaric acid cocrystal Pattern A, hydrate): 99.2% | Bulk (XRPD) ([1]; 25° C./92.5% RH, open container, 4 weeks): No form change | Bulk (HPLC) purity, 316 nm ([1]; 25° C./92.5% RH, open container, 4 weeks, listed as L-Tartaric acid cocrystal Pattern A, hydrate): 98.5% | Bulk (XRPD) ([1]; 40° C./75% RH, open container, 1 week): No form change | Bulk (HPLC) purity, 316 nm ([1]; 40° C./75% RH, open container, 1 week, listed as L-Tartaric acid cocrystal Pattern A, hydrate): 98.9% | Bulk (HPLC) purity, 316 nm [1, 8]: 97.3% | Bulk (XRPD) [1, 8]: No form change | Bulk (XRPD) ([1]; 60° C., closed container, 1 week): No form change | Bulk (HPLC) purity, 316 nm ([1]; 60° C., closed container, 1 week, listed as L-Tartaric acid cocrystal Pattern A, hydrate): 99.1% | Bulk (HPLC) purity, 316 nm [1, 9]: 98.5% | Bulk (XRPD) [1, 9]: No form change | stability under stress conditions ([1]; open container, 25° C. and 92.5% relative humidity and 40° C. and 75% RH, up to four weeks): stable | bulk stability relative to the phosphate salt ([1]; various temperatures and relative humidities (BS1, BS2, BS3)): higher stability | thermodynamic stability based on water activity experiments ([2]; 0, 0.2, 0.4, 0.6, 0.8 and 1.0 water activity): thermodynamically stable | water activity (a.w.) at which the pattern was obtained ([2]; 5° C.): ≤ 0.8 | water activity (a.w.) at which the pattern was obtained ([2]; 25° C.): ≤ 0.8 | water activity (a.w.) at which the pattern was obtained ([2]; 50° C.): ≤ 1.0 | degree of crystallinity after compression (XRPD) ([3]; 2 MPa, 5 MPa and 10 MPa): slight decrease in crystallinity | form change after compression (XRPD) ([3]; 2 MPa, 5 MPa and 10 MPa): no form change | XRPD after compression ([3]; 2 MPa): Pattern A | XRPD after compression ([3]; 5 MPa): Pattern A | XRPD after compression ([3]; 10 MPa): Pattern A | degree of crystallinity after dry grinding (XRPD) [4]: no obvious change in crystallinity | form change after dry grinding (XRPD) [4]: No form change | XRPD after wet granulation ([5]; Granulation solvent Ethanol): Pattern A | Comments (crystallinity after wet granulation) ([5]; Granulation solvent Water): Slight decrease in crystallinity | XRPD after wet granulation ([5]; Granulation solvent Water): Pattern A | XRPD after heating (VT-XRPD) [6]: no form change | purity decrease [7]: 2.1%

— patent publication US20250197393A1, “INTEGRIN INHIBITOR AND USES THEREOF” (Pliant Therapeutics, Inc., priority 2023, published 2025)
